# Data from ChEMBL document CHEMBL1150012, “Enantioselective synthesis of a pyrrolo-benzothiadiazine derivative S 18986, a new AMPA receptor positive modulator” (Bioorg Med Chem Lett, 1996).
# What was measured:
# [1] = target: Glutamate receptor 1 (Rattus norvegicus) (UniProt P19490); test: (§1) Compound was evaluated to potentiate response of AMPA-activated current in Xenopus oocytes expressing Ionotropic glutamate receptor AMPA; format: functional, cell-based; conditions: Oocyte
# [2] = target: Glutamate receptor ionotropic kainate (Homo sapiens) (UniProt P39086+Q16478+Q16099+Q13002+Q13003); test: Compound was evaluated to potentiate response to Ionotropic glutamate receptor kainate; format: protein-complex assay
# [3] = target: Glutamate receptor ionotropic AMPA (Homo sapiens) (UniProt P48058+P42263+P42262+P42261); test: as §1; format: functional, cell-based; conditions: Oocyte
# [4] = target: Glutamate [NMDA] receptor (Homo sapiens) (UniProt Q05586+Q12879+Q13224+O15399+O60391+Q14957+Q8TCU5); test: Compound was evaluated to potentiate response to NMDA receptor; format: protein-complex assay
# Glutamate receptor 1 (Rattus norvegicus), sequence (P19490 whole entry): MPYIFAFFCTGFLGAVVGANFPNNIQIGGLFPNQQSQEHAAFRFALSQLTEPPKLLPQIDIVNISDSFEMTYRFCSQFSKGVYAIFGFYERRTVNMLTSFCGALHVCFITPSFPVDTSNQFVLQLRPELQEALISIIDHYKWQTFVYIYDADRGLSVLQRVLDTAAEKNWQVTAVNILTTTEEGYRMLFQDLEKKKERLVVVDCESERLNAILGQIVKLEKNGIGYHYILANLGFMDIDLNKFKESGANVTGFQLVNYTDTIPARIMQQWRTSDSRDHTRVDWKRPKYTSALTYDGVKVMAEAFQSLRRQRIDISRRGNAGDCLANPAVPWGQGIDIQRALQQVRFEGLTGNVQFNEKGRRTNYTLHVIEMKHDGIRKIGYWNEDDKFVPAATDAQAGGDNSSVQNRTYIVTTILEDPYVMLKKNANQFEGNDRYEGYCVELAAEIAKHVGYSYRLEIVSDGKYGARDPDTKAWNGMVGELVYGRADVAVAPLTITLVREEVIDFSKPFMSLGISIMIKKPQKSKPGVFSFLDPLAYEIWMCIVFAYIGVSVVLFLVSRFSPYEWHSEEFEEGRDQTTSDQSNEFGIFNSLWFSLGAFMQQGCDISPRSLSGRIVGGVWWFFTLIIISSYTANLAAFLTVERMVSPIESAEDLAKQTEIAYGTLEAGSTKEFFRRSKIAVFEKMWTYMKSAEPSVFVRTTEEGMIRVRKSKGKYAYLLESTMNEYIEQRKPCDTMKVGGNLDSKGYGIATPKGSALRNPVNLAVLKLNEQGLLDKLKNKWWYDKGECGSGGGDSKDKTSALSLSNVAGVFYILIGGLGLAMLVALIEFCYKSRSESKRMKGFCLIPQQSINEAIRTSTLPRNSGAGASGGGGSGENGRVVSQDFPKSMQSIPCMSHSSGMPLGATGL
Structure (SMILES),EC2x [1] [µM],EC5x [1] [µM],also measured
O=S1(=O)N[C@H]2CCCN2c2ccccc21,–,–,EC2x [2]: > 300 µM; EC2x [3]: 35 µM; EC5x [3]: 70 µM; EC2x [4]: > 300 µM
NS(=O)(=O)c1cc2c(cc1Cl)NC(C1CC3C=CC1C3)NS2(=O)=O (configuration not stated),2,10,–
O=C(c1ccc2c(c1)OCCO2)N1CC=CCC1,45,110,–
O=C(c1ccc2c(c1)OCO2)N1CCCCC1,300,–,–

# The next lines start with results.
EC2x [1] [µM],EC5x [1] [µM],Structure (SMILES),also measured
60,160,O=S1(=O)NC2CCCN2c2ccccc21 (racemic),–
300,–,O=S1(=O)N[C@@H]2CCCN2c2ccccc21,–
